Assay: blister healing of the skin (blisters raised, roofs cut off)
Format: in vivo, human
Details: topical application before raising the blister; alone or in combination with xanthophylls
Text: Experiments have been performed wherein blisters have been raised and the roofs cut off of the skins of individuals of various ages.

For `CC1=C(/C=C/C(C)=C/C=C/C(C)=C/C(=O)O)C(C)(C)CCC1` [tretinoin, all-trans retinoic acid], the “healing time of blisters” value was “halves”.

From patent US20060122282A1, “METHOD FOR TREATING SKIN DISORDERS WITH XANTHOPHYLLS” (priority 2004, published 2006)
